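The compound was tested at five concentrations on cells cultured in 96-well plates, with a 48-hour exposure period. GI50: concentration for 50% inhibition of growth.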 Active and inactive are the calls of the source. Rule as the data show it: active = GI50 up to about 1.1 µM and inactive = higher.
Experiments:
Test in all cases: NCI tumour cell line growth inhibition, 48 h
786-0 = tested on: 786-0
A498 = tested on: A498
A549 = tested on: A549
CAKI-1 = tested on: CAKI-1
COLO 205 = tested on: COLO 205
DLD-1 = tested on: DLD-1
DMS-114 = tested on: DMS-114
DMS-273 = tested on: DMS-273
EKVX = tested on: EKVX
HCC 2998 = tested on: HCC 2998
HCT-116 = tested on: HCT-116
HCT-15 = tested on: HCT-15
HL-60 = tested on: HL-60
HOP-18 = tested on: HOP-18
HOP-62 = tested on: HOP-62
HOP-92 = tested on: HOP-92
HT-29 = tested on: HT-29
IGROV-1 = tested on: IGROV-1
K562 = tested on: K562
KM-20L2 = tested on: KM-20L2
KM12 = tested on: KM12
LOX IMVI = tested on: LOX IMVI
LXFL 529 = tested on: LXFL 529
M14 = tested on: M14
M19-MEL = tested on: M19-MEL
MOLT-4 = tested on: MOLT-4
Malme-3M = tested on: Malme-3M
NCI-H226 = tested on: NCI-H226
NCI-H23 = tested on: NCI-H23
NCI-H460 = tested on: NCI-H460
NCI-H522 = tested on: NCI-H522
OVCAR-3 = tested on: OVCAR-3
OVCAR-4 = tested on: OVCAR-4
OVCAR-5 = tested on: OVCAR-5
OVCAR-8 = tested on: OVCAR-8
RPMI-8226 = tested on: RPMI-8226
RXF 393 = tested on: RXF 393
RXF 631 = tested on: RXF 631
SF-268 = tested on: SF-268
SF-295 = tested on: SF-295
SF-539 = tested on: SF-539
SK-MEL-5 = tested on: SK-MEL-5
SK-OV-3 = tested on: SK-OV-3
SN12C = tested on: SN12C
SNB-19 = tested on: SNB-19
SNB-75 = tested on: SNB-75
SNB-78 = tested on: SNB-78
SR = tested on: SR
SW-620 = tested on: SW-620
TK-10 = tested on: TK-10
U-251 = tested on: U-251
UACC-257 = tested on: UACC-257
UACC-62 = tested on: UACC-62
UO-31 = tested on: UO-31
XF498 = tested on: XF498
ACHN = tested on: ACHN
CCRF-CEM = tested on: CCRF-CEM
SK-MEL-28 = tested on: SK-MEL-28
SK-MEL-2 = tested on: SK-MEL-2

For CSC(=S)c1ccc(C(=S)SC)cc1, the GI50 (786-0) was > 100 µM (inactive), the GI50 (A498) was > 100 µM (inactive) and the GI50 (A549) was > 100 µM (inactive). The GI50 (CAKI-1) was > 100 µM (inactive), the GI50 (COLO 205) was > 100 µM (inactive) and the GI50 (DLD-1) was > 100 µM (inactive). The GI50 (DMS-114) was > 100 µM (inactive), the GI50 (DMS-273) was > 100 µM (inactive) and the GI50 (EKVX) was > 100 µM (inactive). The GI50 (HCC 2998) was > 100 µM (inactive), the GI50 (HCT-116) was > 100 µM (inactive) and the GI50 (HCT-15) was greater than 100 µM. The GI50 (HL-60) was > 100 µM (inactive), the GI50 (HOP-18) was > 100 µM (inactive) and the GI50 (HOP-62) was > 100 µM (inactive). The GI50 (HOP-92) was > 100 µM (inactive), the GI50 (HT-29) was > 100 µM (inactive) and the GI50 (IGROV-1) was > 100 µM (inactive). For the same compound, the GI50 (K562) was > 100 µM (inactive), the GI50 (KM-20L2) was > 100 µM (inactive) and the GI50 (KM12) was > 100 µM (inactive). The GI50 (LOX IMVI) was > 100 µM (inactive), the GI50 (LXFL 529) was > 100 µM (inactive) and the GI50 (M14) was > 100 µM (inactive). The GI50 (M19-MEL) was > 100 µM (inactive), the GI50 (MOLT-4) was > 100 µM (inactive) and the GI50 (Malme-3M) was > 100 µM (inactive). For the same compound, the GI50 (NCI-H226) was > 100 µM (inactive), the GI50 (NCI-H23) was > 100 µM (inactive) and the GI50 (NCI-H460) was > 100 µM (inactive). The GI50 (NCI-H522) was > 100 µM (inactive), the GI50 (OVCAR-3) was > 100 µM (inactive) and the GI50 (OVCAR-4) was > 100 µM (inactive). The GI50 (OVCAR-5) was > 100 µM (inactive), the GI50 (OVCAR-8) was > 100 µM (inactive) and the GI50 (RPMI-8226) was > 100 µM (inactive). The GI50 (RXF 393) was > 100 µM (inactive), the GI50 (RXF 631) was > 100 µM (inactive) and the GI50 (SF-268) was > 100 µM (inactive). The GI50 (SF-295) was > 100 µM (inactive), the GI50 (SF-539) was > 100 µM (inactive) and the GI50 (SK-MEL-5) was > 100 µM (inactive). For the same compound, the GI50 (SK-OV-3) was > 100 µM (inactive), the GI50 (SN12C) was > 100 µM (inactive) and the GI50 (SNB-19) was > 100 µM (inactive). For the same compound, the GI50 (SNB-75) was > 100 µM (inactive), the GI50 (SNB-78) was > 100 µM (inactive) and the GI50 (SR) was > 100 µM (inactive). For the same compound, the GI50 (SW-620) was > 100 µM (inactive), the GI50 (TK-10) was > 100 µM (inactive) and the GI50 (U-251) was > 100 µM (inactive). For the same compound, the GI50 (UACC-257) was > 100 µM (inactive), the GI50 (UACC-62) was > 100 µM (inactive) and the GI50 (UO-31) was > 100 µM (inactive). The GI50 (XF498) was > 100 µM (inactive).
For CC(C)(C)[Si](C)(C)OCCCC#CCO, the GI50 (A498) was > 100 µM (inactive), the GI50 (A549) was > 100 µM (inactive) and the GI50 (ACHN) was > 100 µM (inactive). The GI50 (CAKI-1) was > 100 µM (inactive), the GI50 (CCRF-CEM) was 38.7 µM (inactive) and the GI50 (COLO 205) was > 100 µM (inactive). The GI50 (DLD-1) was > 100 µM (inactive), the GI50 (DMS-114) was > 100 µM (inactive) and the GI50 (DMS-273) was > 100 µM (inactive). For the same compound, the GI50 (EKVX) was > 100 µM (inactive), the GI50 (HCC 2998) was > 100 µM (inactive) and the GI50 (HCT-15) was greater than 100 µM. For the same compound, the GI50 (HL-60) was 25.8 µM (inactive), the GI50 (HOP-18) was < 0.01 µM (active) and the GI50 (HT-29) was > 100 µM (inactive). For the same compound, the GI50 (IGROV-1) was > 100 µM (inactive), the GI50 (K562) was 98.2 µM (inactive) and the GI50 (KM-20L2) was > 100 µM (inactive). For the same compound, the GI50 (KM12) was > 100 µM (inactive), the GI50 (LOX IMVI) was > 100 µM (inactive) and the GI50 (LXFL 529) was > 100 µM (inactive). For the same compound, the GI50 (M14) was > 100 µM (inactive), the GI50 (MOLT-4) was 92.7 µM (inactive) and the GI50 (Malme-3M) was > 100 µM (inactive). The GI50 (NCI-H23) was > 100 µM (inactive), the GI50 (NCI-H460) was > 100 µM (inactive) and the GI50 (NCI-H522) was > 100 µM (inactive). The GI50 (OVCAR-4) was > 100 µM (inactive), the GI50 (OVCAR-5) was > 100 µM (inactive) and the GI50 (OVCAR-8) was > 100 µM (inactive). For the same compound, the GI50 (RPMI-8226) was 64.9 µM (inactive), the GI50 (RXF 393) was > 100 µM (inactive) and the GI50 (RXF 631) was > 100 µM (inactive). For the same compound, the GI50 (SF-268) was > 100 µM (inactive), the GI50 (SF-295) was > 100 µM (inactive) and the GI50 (SF-539) was > 100 µM (inactive). For the same compound, the GI50 (SK-MEL-28) was > 100 µM (inactive), the GI50 (SK-MEL-2) was > 100 µM (inactive) and the GI50 (SK-MEL-5) was > 100 µM (inactive). For the same compound, the GI50 (SK-OV-3) was > 100 µM (inactive), the GI50 (SN12C) was > 100 µM (inactive) and the GI50 (SNB-19) was > 100 µM (inactive). For the same compound, the GI50 (SNB-75) was > 100 µM (inactive), the GI50 (SNB-78) was > 100 µM (inactive) and the GI50 (SW-620) was > 100 µM (inactive). For the same compound, the GI50 (TK-10) was > 100 µM (inactive), the GI50 (U-251) was > 100 µM (inactive) and the GI50 (UACC-257) was > 100 µM (inactive). For the same compound, the GI50 (UACC-62) was > 100 µM (inactive), the GI50 (UO-31) was > 100 µM (inactive) and the GI50 (XF498) was > 100 µM (inactive).

Source: ChEMBL document CHEMBL1201862, “PubChem BioAssay data set” (2004)
